{"source": "paper PMC8079033", "about": "“Design, synthesis, anticancer evaluation, and molecular modelling studies of novel tolmetin derivatives as potential VEGFR-2 inhibitors and apoptosis inducers” (Journal of Enzyme Inhibition and Medicinal Chemistry, 2021)", "key": {"[1]": {"tested_on": "UACC-257", "experiment": "NCI 60-cell line one-dose antiproliferative screen (SRB)", "assay_type": "cell-based", "conditions": "Homo sapiens, read-out: growth inhibition % (GI%)", "how_it_was_run": "(§1)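 Read-out is SRB absorbance at 515 nm after 48 h treatment at 10 µM. Percent growth is calculated from time-zero, control and treated readings, then expressed as growth inhibition percentage, so both inhibition and cell kill register.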"}, "[2]": {"tested_on": "MALME-3M", "experiment": "NCI 60-cell line one-dose antiproliferative screen (SRB)", "assay_type": "cell-based", "conditions": "Homo sapiens, read-out: growth inhibition % (GI%)", "how_it_was_run": "as §1"}, "[3]": {"tested_on": "Colo 205", "experiment": "NCI 60-cell line one-dose antiproliferative screen (SRB)", "assay_type": "cell-based", "conditions": "Homo sapiens, read-out: growth inhibition % (GI%)", "how_it_was_run": "as §1"}, "[4]": {"tested_on": "MDA-MB-435", "experiment": "NCI 60-cell line one-dose antiproliferative screen (SRB)", "assay_type": "cell-based", "conditions": "Homo sapiens, read-out: growth inhibition % (GI%)", "how_it_was_run": "as §1"}, "[5]": {"tested_on": "NCI-H226", "experiment": "NCI 60-cell line one-dose antiproliferative screen (SRB)", "assay_type": "cell-based", "conditions": "Homo sapiens, read-out: growth inhibition % (GI%)", "how_it_was_run": "as §1"}, "[6]": {"tested_on": "SW-620", "experiment": "NCI 60-cell line one-dose antiproliferative screen (SRB)", "assay_type": "cell-based", "conditions": "Homo sapiens, read-out: growth inhibition % (GI%)", "how_it_was_run": "as §1"}, "[7]": {"tested_on": "SF-268", "experiment": "NCI 60-cell line one-dose antiproliferative screen (SRB)", "assay_type": "cell-based", "conditions": "Homo sapiens, read-out: growth inhibition % (GI%)", "how_it_was_run": "as §1"}, "[8]": {"tested_on": "SK-MEL-2", "experiment": "NCI 60-cell line one-dose antiproliferative screen (SRB)", "assay_type": "cell-based", "conditions": "Homo sapiens, read-out: growth inhibition % (GI%)", "how_it_was_run": "as §1"}, "[9]": {"tested_on": "HOP-92", "experiment": "NCI 60-cell line one-dose antiproliferative screen (SRB)", "assay_type": "cell-based", "conditions": "Homo sapiens, read-out: growth inhibition % (GI%)", "how_it_was_run": "as §1"}, "[10]": {"tested_on": "UACC-62", "experiment": "NCI 60-cell line one-dose antiproliferative screen (SRB)", "assay_type": "cell-based", "conditions": "Homo sapiens, read-out: growth inhibition % (GI%)", "how_it_was_run": "as §1"}, "[11]": {"tested_on": "SK-MEL-28", "experiment": "NCI 60-cell line one-dose antiproliferative screen (SRB)", "assay_type": "cell-based", "conditions": "Homo sapiens, read-out: growth inhibition % (GI%)", "how_it_was_run": "as §1"}, "[12]": {"tested_on": "BT-5", "experiment": "NCI 60-cell line one-dose antiproliferative screen (SRB)", "assay_type": "cell-based", "conditions": "Homo sapiens, read-out: growth inhibition % (GI%)", "how_it_was_run": "as §1"}, "[13]": {"tested_on": "HS 578 T", "experiment": "NCI 60-cell line one-dose antiproliferative screen (SRB)", "assay_type": "cell-based", "conditions": "Homo sapiens, read-out: growth inhibition % (GI%)", "how_it_was_run": "as §1"}, "[14]": {"tested_on": "DU-145", "experiment": "NCI 60-cell line one-dose antiproliferative screen (SRB)", "assay_type": "cell-based", "conditions": "Homo sapiens, read-out: growth inhibition % (GI%)", "how_it_was_run": "as §1"}, "[15]": {"tested_on": "HCC-2998", "experiment": "NCI 60-cell line one-dose antiproliferative screen (SRB)", "assay_type": "cell-based", "conditions": "Homo sapiens, read-out: growth inhibition % (GI%)", "how_it_was_run": "as §1"}, "[16]": {"tested_on": "SK-OV-3", "experiment": "NCI 60-cell line one-dose antiproliferative screen (SRB)", "assay_type": "cell-based", "conditions": "Homo sapiens, read-out: growth inhibition % (GI%)", "how_it_was_run": "as §1"}, "[17]": {"tested_on": "NCI-H322M", "experiment": "NCI 60-cell line one-dose antiproliferative screen (SRB)", "assay_type": "cell-based", "conditions": "Homo sapiens, read-out: growth inhibition % (GI%)", "how_it_was_run": "as §1"}, "[18]": {"tested_on": "TK-10", "experiment": "NCI 60-cell line one-dose antiproliferative screen (SRB)", "assay_type": "cell-based", "conditions": "Homo sapiens, read-out: growth inhibition % (GI%)", "how_it_was_run": "as §1"}, "[19]": {"tested_on": "OVCAR-3", "experiment": "NCI 60-cell line one-dose antiproliferative screen (SRB)", "assay_type": "cell-based", "conditions": "Homo sapiens, read-out: growth inhibition % (GI%)", "how_it_was_run": "as §1"}, "[20]": {"tested_on": "HT29", "experiment": "NCI 60-cell line one-dose antiproliferative screen (SRB)", "assay_type": "cell-based", "conditions": "Homo sapiens, HT-29, read-out: growth inhibition % (GI%)", "how_it_was_run": "as §1"}, "[21]": {"tested_on": "SF-295", "experiment": "NCI 60-cell line one-dose antiproliferative screen (SRB)", "assay_type": "cell-based", "conditions": "Homo sapiens, read-out: growth inhibition % (GI%)", "how_it_was_run": "as §1"}, "[22]": {"tested_on": "OVCAR-4", "experiment": "NCI 60-cell line one-dose antiproliferative screen (SRB)", "assay_type": "cell-based", "conditions": "Homo sapiens, read-out: growth inhibition % (GI%)", "how_it_was_run": "as §1"}, "[23]": {"tested_on": "SR", "experiment": "NCI 60-cell line one-dose antiproliferative screen (SRB)", "assay_type": "cell-based", "conditions": "Homo sapiens, read-out: growth inhibition % (GI%)", "how_it_was_run": "as §1"}, "[24]": {"tested_on": "RXF 393", "experiment": "NCI 60-cell line one-dose antiproliferative screen (SRB)", "assay_type": "cell-based", "conditions": "Homo sapiens, read-out: growth inhibition % (GI%)", "how_it_was_run": "as §1"}, "[25]": {"tested_on": "RPMI-8226", "experiment": "NCI 60-cell line one-dose antiproliferative screen (SRB)", "assay_type": "cell-based", "conditions": "Homo sapiens, read-out: growth inhibition % (GI%)", "how_it_was_run": "as §1"}, "[26]": {"tested_on": "HL-60 (TB)", "experiment": "NCI 60-cell line one-dose antiproliferative screen (SRB)", "assay_type": "cell-based", "conditions": "Homo sapiens, read-out: growth inhibition % (GI%)", "how_it_was_run": "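Cells were plated and held 24 h at 37 °C, 5% CO2 before a single 10 µM dose was added, then exposed 48 h. Adherent cells were fixed with TCA (final 10%), suspension cells with TCA (final 16%), stained with sulforhodamine B and read at 515 nm.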"}, "[27]": {"tested_on": "KM12", "experiment": "NCI 60-cell line one-dose antiproliferative screen (SRB)", "assay_type": "cell-based", "conditions": "Homo sapiens, read-out: growth inhibition % (GI%)", "how_it_was_run": "as §1"}, "[28]": {"tested_on": "renal (UO-31) cell line", "experiment": "MTT cytotoxicity assay", "assay_type": "cell-based", "conditions": "Homo sapiens, mean ± SD of three experiments"}, "[29]": {"tested_on": "leukaemia HL-60 (TB) cell line", "experiment": "MTT cytotoxicity assay", "assay_type": "cell-based", "conditions": "Homo sapiens, mean ± SD of three experiments"}, "[30]": {"tested_on": "colon (HCT-15) cell line", "experiment": "MTT cytotoxicity assay", "assay_type": "cell-based", "conditions": "Homo sapiens, mean ± SD of three experiments"}, "[31]": {"tested_on": "panel of 60 tumour cell lines", "experiment": "NCI 60-cell line one-dose screen, summary over the panel", "assay_type": "cell-based, human", "conditions": "Homo sapiens, 60 cell, listed leukaemia, lung, colon, CNS, melanoma, ovarian, renal, breast lines, read-out: GI% range, potent growth inhibitory effects on the cell lines listed in the text", "description": "Anticancer activity screening of the newly synthesised compounds was measured in vitro utilising 60 different human tumour cell lines provided by US National Cancer Institute according to previously reported standard procedure[41–43] as follows: Cells are inoculated into 96-well microtiter plates in 100 ml. After cell inoculation, the microtiter plates are incubated at 37 °C, 5% CO2, 95% air, and 100% relative humidity for 24 h prior to addition of experimental compounds. After 24 h, two plates of each cell line are fixed in situ with TCA, to represent a measurement of the cell population for each cell line at the time of compound addition (Tz). Experimental compounds are solubilised in dimethyl sulfoxide at 400-fold the desired final maximum test concentration and stored frozen prior to use. At the time of compound addition, an aliquot of frozen concentrate is thawed and diluted to twice the desired final maximum test concentration with a complete medium containing […] gentamicin. Aliquots of […] of the compounds dilutions are added to the appropriate microtiter wells already containing 100 ml of medium, resulting in the required final compound concentration. Following compound addition, the plates are incubated for an additional 48 h at 37 °C, 5% CO2, 95% air, and 100% relative humidity. […] The bound stain is subsequently solubilised with a 10 mM trizma base, and the absorbance is read on an automated plate reader at a wavelength of 515 nm. […] Using the absorbance measurements [time zero, (Tz), control growth, (C), and test growth in the presence of compound (Ti)], the percentage growth is calculated for each compound. […]\nFifteen newly synthesised compounds were tested for their in vitro antiproliferative activity by the National Cancer Institute (NCI), Maryland, USA[50], under the Developmental Therapeutic Program (DTP)[41]^,[43]^,[51]^,[52]. The tested compounds were evaluated at a concentration of 10 µM on a panel of 60 tumour cell lines representing leukaemia and non-small cell lung, colon, CNS, melanoma, ovarian, renal, prostate, and breast cancers. […]"}}}
{"compound": "Cc1ccc(C(=O)c2ccc(CC(=O)NN=Cc3ccc(O)cc3O)n2C)cc1", "note": "[Compound 5c, N′-(2,4-Dihydroxybenzylidene)-2–(1-methyl-5–(4-methylbenzoyl)-1H-pyrrol-2-yl) acetohydrazide]", "values": [{"measurement": "inhibition at 10 µM", "setting": "[1]", "value": 41.7, "unit": "%"}, {"measurement": "inhibition at 10 µM", "setting": "[2]", "value": 51.4, "unit": "%"}, {"measurement": "inhibition at 10 µM", "setting": "[3]", "value": 58.2, "unit": "%"}, {"measurement": "inhibition at 10 µM", "setting": "[4]", "value": 36.9, "unit": "%"}, {"measurement": "inhibition at 10 µM", "setting": "[5]", "value": 34.3, "unit": "%"}, {"measurement": "inhibition at 10 µM", "setting": "[6]", "value": 57.8, "unit": "%"}, {"measurement": "inhibition at 10 µM", "setting": "[7]", "value": 62.7, "unit": "%"}, {"measurement": "inhibition at 10 µM", "setting": "[8]", "value": 40.6, "unit": "%"}, {"measurement": "inhibition at 10 µM", "setting": "[9]", "value": 16.9, "unit": "%"}, {"measurement": "inhibition at 10 µM", "setting": "[10]", "value": 70.2, "unit": "%"}, {"measurement": "inhibition at 10 µM", "setting": "[11]", "value": 53.6, "unit": "%"}, {"measurement": "inhibition at 10 µM", "setting": "[12]", "value": 49.2, "unit": "%"}, {"measurement": "inhibition at 10 µM", "setting": "[13]", "value": 25.1, "unit": "%"}, {"measurement": "inhibition at 10 µM", "setting": "[14]", "value": 48.7, "unit": "%"}, {"measurement": "inhibition at 10 µM", "setting": "[15]", "value": 40.4, "unit": "%"}, {"measurement": "inhibition at 10 µM", "setting": "[16]", "value": 54.9, "unit": "%"}, {"measurement": "inhibition at 10 µM", "setting": "[17]", "value": 62, "unit": "%"}, {"measurement": "inhibition at 10 µM", "setting": "[18]", "value": 47.1, "unit": "%"}, {"measurement": "inhibition at 10 µM", "setting": "[19]", "value": 62.8, "unit": "%"}, {"measurement": "inhibition at 10 µM", "setting": "[20]", "value": 36, "unit": "%"}, {"measurement": "inhibition at 10 µM", "setting": "[21]", "value": 52.8, "unit": "%"}, {"measurement": "inhibition at 10 µM", "setting": "[22]", "value": 79.3, "unit": "%"}, {"measurement": "inhibition at 10 µM", "setting": "[23]", "value": 82.7, "unit": "%"}, {"measurement": "inhibition at 10 µM", "setting": "[24]", "value": 50.3, "unit": "%"}, {"measurement": "inhibition at 10 µM", "setting": "[25]", "value": 51.6, "unit": "%"}, {"measurement": "inhibition at 10 µM", "setting": "[26]", "value": 95.5, "unit": "%"}, {"measurement": "inhibition at 10 µM", "setting": "[27]", "value": 63.9, "unit": "%"}, {"measurement": "IC50", "setting": "[28]", "value": "17.4 ± 0.93", "unit": "µM"}, {"measurement": "IC50", "setting": "[29]", "value": "31.7 ± 1.7", "unit": "µM"}, {"measurement": "IC50", "setting": "[30]", "value": "19 ± 1.03", "unit": "µM"}, {"measurement": "inhibition at 10 µM", "setting": "[31]", "value": "60.7 to 95", "unit": "%"}]}
